Data published in patent US8163776B2, “Method of immunomodulation using thione-forming disulfides” (Grassetti family Trust, priority 2001, dated 2012).
“And” between values parts separate entries of the source, which are not always exact repeats. Equal entries are not always repeated.

Experiments:
[1] = test system: NK cells; test: NK cell activity, standard 51Cr release assay with YAC-1 target cells; assay type: in vivo, BALB/c mice; design: NK activity (%): concentration or dose not given beside the values; settings: for NK activity (%): % specific lysis, E:T 200:1
Experimental: NK cell activity was determined by using a standard NK assay (Coligan, J. E. et al. 1993. “In Vitro Assays for mouse lymphocyte function” Chapter 3, Current Protocol in Imnunology, John Wiley & Sons, New York) using YAC-1 cells (ATCC #TIB-160) as target cells. These cells were washed twice with HBSS, counted, and suspended at a concentration of 5×10^6 cells/ml. About 5×10^6 cells were labeled with 100 μCi of ^51Cr. Cells were incubated 90 minutes at 37° C. in a 5% CO2 humidified incubator and then washed three times with RPMI, counted, and suspended at a concentration of 1×10^5 cells/ml in complete RPMI. About 100 μl of target cells (˜1×10^4 cells) was put into each well of a round-bottom 96 wells plate.
Four dilutions of splenocytes were prepared: 2×10^7 cells/ml, 1×10^7 cells/ml, 0.5×10^7 cells/ml, and 0.25×10^7 cells/ml. A volume of 100 μl of each splenocyte dilution was plated in triplicate with the target cells for a final effector:target (E:T) ratio of 200:1, 100:1, 50:1 and 25:1.
A maximal control release was prepared in triplicate on each plate by adding 100 μl of 5% Triton X-100 solution instead of effector cells. Spontaneous release was prepared in triplicate on each plate by adding 100 μl of complete RPMI instead of effector cells. Plates were centrifuged and incubated 4 hours at 37° C. in a 5% CO2 humidified incubator. After incubation, the supernatants were collected and the ^51Cr release was determined using a gamma counter. The average cpm count was calculated for each triplicate. The average cpm count for the total and spontaneous release was also calculated. The percentage (%) of specific lysis is calculated using the following formula:
Where, ER=Experimental release of ^51Cr • TR=Total release of ^51Cr • SR=Spontaneous release of ^51Cr
The % of specific lysis for every ratio (200:1, 100:1, 50:1 and 25:1) was calculated. A graphic representation of the results is done: specific lysis % versus the ratio to verify the linearity. For BALB/c mice strains which usually show low NK activity, specific lysis corresponding to an E:T ratio of 200:1 is used to represent the data for each animal. The mean NK activity is then calculated for each control and treated group. Student's T test was performed between the control group and the treated group. The p value was calculated for statistical significance.
In this assay, the effect on the NK activity of feeding Balb/c mice with compound CPDS for short term (6 days) and longer term (30 days) was evaluated. The NK cells are a lymphocyte subset with non specific cytotoxicity activity. Results are presented as the % of specific lysis of target cells for a ratio of 200:1 (Table 8 and FIG. 2). Balb/c mice normally show low NK activity which justifies the choice of the 200:1 ratio for the comparison between groups.

[2] = test system: spleen T cells, B cells and NK cells; test: Immunophenotyping of splenocytes by flow cytometry; assay type: in vivo, BALB/c mice
Experimental: In general, the immunophenotyping technique consisted briefly of isolating cells from the peripheral blood or an organ (spleen or thymus), labeling them with a panel of antibodies specific for certain antigens of the membrane, and allowing to quantify the different populations. Analysis was performed by flow cytometry since antibodies were conjugated with a fluorochrome (Longbardi, Givan, A., 1994, Flow cytometry. First principles, Wiley-Liss Inc. New York.).
To immunophenotype immune cells, splenocytes were diluted to a concentration of […]. A total of 1×10^6 cells were distributed in a V-shape 96 well plate. A total of 7 wells were necessary for each sample. Plates were centrifuged 5 minutes at 1200 rpm. Supernatant was discarded and pellet were vortexed. Monoclonal antibodies were distributed in each wells according to the following set up:
The antibodies used are commercially available from Becton Dickinson (San Jose, Calif.). The cells were incubated with the antibodies for 30 minutes on ice, washed three times with D-PBS+1% BSA, spun at 1200 rpm for 5 minutes using a multichannel pipette, suspended in 1 ml of paraformaldehyde 2% (v/v), and transferred into flow cytometry tubes. Samples were analyzed using EPICS XL from Beckman Coulter flow cytometer. Results were expressed as percentage of the population expressing the specific surface antigen. Live population of cells were gated upon using forward scatter (FS) vs. side scatter (SS) to distinguish live cells from dead cells. A total of 10,000 gated cells were counted for statistical relevance. The FL1 band pass filter (set at 525 nm) was used to detect fluoroscein isothiocyanate (FITC) fluorescence. The FL2 band pass filter (set at 575 nm) was used to detect phycoerythrin (PE) fluorescence. The cursors are set accordingly to delineate the positive region. This region should be relative to 1% of the unstained control (cell control). Results are expressed as % of positive population expressing the specific surface antigens. Student's T test was performed between the control group and the treated group. The p value was calculated for statistical significance.

[3] = Group 2, 30 days on CPDS diet, Mean ± S.D.
[4] = Group 2, 30 days on CPDS diet, individual mice
[5] = Group 6, 6 days on CPDS diet, Mean ± S.D.
[6] = Group 6, 6 days on CPDS diet, individual mice
[7] = 30 days on CPDS diet vs group 1

O=C(O)c1ccc(SSc2ccc(C(=O)O)cn2)nc1 [CPDS, 6,6′-dithiodinicotinic acid]
NK activity, effect of CPDS diet ([1]; 6 days, vs control): No significant effect
NK activity, variation ([1]; Group 2, 30 days on CPDS diet vs Group 1): 24.7%
NK activity (%) [1, 3]: 6.8 ± 1.4%
NK activity (%) [1, 4]: 8.7% and 7.9% and 5.0% and 6.9% and 6.3% and 5.6% (2×) and 8.2%
NK activity, variation ([1]; Group 6, 6 days on CPDS diet vs group 5): −13.1%
NK activity (%) [1, 5]: 7.9 ± 2.0%
NK activity (%) [1, 6]: 10.2% and 7.0% and 6.6%
B cells, variation (%) ([2]; 6 days on CPDS diet vs Group 5): −1.0%
CD4+, variation (%) ([2]; 6 days on CPDS diet vs Group 5): −8.5%
CD8+, variation (%) ([2]; 6 days on CPDS diet vs Group 5): −6.8%
NK cells, variation (%) ([2]; 6 days on CPDS diet vs Group 5): 43.5%
Ratio CD4/CD8, variation (%) ([2]; 6 days on CPDS diet vs Group 5): −1.8%
Total T cells, variation (%) ([2]; 6 days on CPDS diet vs Group 5): −8.0%
Immunophenotyping: B cells, effect of CPDS diet ([2]; 6 days, n=3): no significant effect
Immunophenotyping: Ratio CD4/CD8, effect of CPDS diet ([2]; 6 days, n=3): No effect
Immunophenotyping: T CD4+, effect of CPDS diet ([2]; 6 days, n=3): No effect
Immunophenotyping: T CD8+, effect of CPDS diet ([2]; 6 days, n=3): No effect
Immunophenotyping: Total T cells, effect of CPDS diet ([2]; 6 days, n=3): no significant effect
Immunophenotyping: NK cells, effect of CPDS diet ([2]; 6 days, n=3, arrow image = increase): tendency toward an increase
B cells, variation (%) [2, 7]: −19.9%
CD4+, variation (%) [2, 7]: −3.9%
CD8+, variation (%) [2, 7]: −11.0%
NK cells, variation (%) [2, 7]: 69.4%
Ratio CD4/CD8, variation (%) [2, 7]: 7.7%
Total T cells, variation (%) [2, 7]: −1.2%
Immunophenotyping: T CD4+, effect of CPDS diet ([2]; 30 days, n=8): No effect
Immunophenotyping: Total T cells, effect of CPDS diet ([2]; 30 days, n=8): No effect
Immunophenotyping: T CD8+, effect of CPDS diet ([2]; 30 days, n=8, arrow image = decrease): tendency to decrease
Immunophenotyping: Ratio CD4/CD8, effect of CPDS diet ([2]; 30 days, n=8, arrow image = increase): tendency
B cells (%) [2, 3]: 23.4 ± 2.0%
CD4+ (%) [2, 3]: 23.6 ± 2.3%
CD8+ (%) [2, 3]: 9.6 ± 1.2%
NK cells (%) [2, 3]: 6.9 ± 4.9%
Ratio CD4/CD8 [2, 3]: 2.49 ± 0.26
Total T cells (%) [2, 3]: 38.4 ± 2.9%
B cells (%) [2, 4]: 24.0% and 25.9% and 25.0% and 21.5% and 23.8% and 22.3% and 24.8% and 20.1%
CD4+ (%) [2, 4]: 21.7% (2×) and 24.0% and 28.3% and 25.7% and 23.2% and 22.2% and 22.1%
CD8+ (%) [2, 4]: 8.5% and 9.58% and 10.2% and 11.5% and 9.66% and 7.92% and 8.54% and 10.5%
NK cells (%) [2, 4]: 16.8% and 4.8% (2×) and 11.9% and 3.72% and 2.6% and 5.56% and 4.76%
Ratio CD4/CD8 [2, 4]: 2.55 and 2.27 and 2.35 and 2.46 and 2.66 and 2.93 and 2.60 and 2.1
Total T cells (%) [2, 4]: 35.8% and 36.8% and 39.6% and 44.6% and 39.8% and 37.5% and 36.0% and 37.4%
B cells (%) [2, 5]: 50.3 ± 0.5%
CD4+ (%) [2, 5]: 25.8 ± 2.3%
CD8+ (%) [2, 5]: 13.6 ± 0.9%
NK cells (%) [2, 5]: 11.9 ± 2.7%
Ratio CD4/CD8 [2, 5]: 1.90 ± 0.06
Total T cells (%) [2, 5]: 41.4 ± 2.5%
B cells (%) [2, 6]: 49.8% and 50.7% and 50.3%
CD4+ (%) [2, 6]: 26.4% and 23.3% and 27.8%
CD8+ (%) [2, 6]: 14.0% and 12.6% and 14.2%
NK cells (%) [2, 6]: 9.7% and 14.1% and 9.1%
Ratio CD4/CD8 [2, 6]: 1.89 and 1.85 and 1.96
Total T cells (%) [2, 6]: 42.8% and 38.6% and 42.9%
